Key:
Caspase-9 −/− thymocytes [1] = assay: Apoptosis assay using thymocytes (Annexin V / 7-AAD, FACS); format: cell-based, mice; settings: Caspase-9 −/− thymocytes vs wild type; 2 μM dexamethasone, 1 μM staurosporine or 1 μg/ml anti-mouse Fas antibody plus cycloheximide; 6 hr or 24 hr
Source text: To investigate the role of Caspase-9 in apoptosis pathways in other systems, we used primary cultures of thymocytes. Although thymocytes from Caspase9 −/− animals developed normally with no differences in the number of thymocytes or in the ratio of surface markers such as CD4, CD8 or CD3 (data not shown), we challenged the thymocytes with several apoptotic stimuli: dexamethasone, staurosporine, and anti-Fas antibody
(§1) Thymocytes were isolated from wild type and Caspase9 −/− mice. One million cells were treated with 2 μM dexamethasone (Sigma), 1 μM staurosporine (Sigma), 1 μg/ml anti-mouse Fas antibody (PharMingen) plus […] cycloheximide (Sigma), or 10% FCS medium only for 6 hr or 24 hr. Samples were stained with Annexin V (Boehringer Mannheim) and 7-aminoactinomycin D (7-AAD) (Sigma) to label apoptotic cells for FACS Sort (Becton Dickinson).

Caspase-9 −/− thymocytes [2] = assay: DNA fragmentation assay (DNA laddering on agarose gel); format: cell-based, mice
Protocol: as §1
DNA was isolated using a DNA isolation kit (LeMax Biotech) and subjected to electrophoresis on a 2% agarose gel. Gels were stained by ethidium bromide and images were taken by a scanner.

Which results are given for `CN[C@@H]1C[C@H]2O[C@@](C)([C@@H]1OC)n1c3ccccc3c3c4c(c5c6ccccc6n2c5c31)C(=O)NC4` [staurosporine]?
thymocyte survival / induced cell death (Caspase-9 −/− thymocytes [1]): reduced survival which was comparable to the death seen in controls; DNA laddering (Caspase-9 −/− thymocytes [2]; Caspase-9 deficient thymocytes, up to 24 hours of treatment): DNA laddering was also eliminated; DNA cleavage after long-term treatment (Caspase-9 −/− thymocytes [2]; Caspase-9 −/− thymocytes, 36 and 48 hours of continual treatment (data not shown)): did begin to cleave their DNA
